Laboratory results reported in ChEMBL document CHEMBL1201862, “PubChem BioAssay data set” (2004).
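Step 1: Grow cells in 96-well plates. Step 2: Expose to compound for 48 hours at 5 concentrations. Step 3: Interpolate endpoints linearly; if unreached, use highest concentration. The concentration for 50% growth inhibition is given as GI50.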 Activity calls are given as the source filed them. Rule as the data show it: active = GI50 up to about 1.1 µM and inactive = higher.

How the values were obtained:
Assay in all cases: inhibition of tumour cell growth, NCI panel, 48 h
[1] = test system: 786-0
[2] = test system: A498
[3] = test system: A549
[4] = test system: ACHN
[5] = test system: BT-549
[6] = test system: CAKI-1
[7] = test system: COLO 205
[8] = test system: DU-145
[9] = test system: EKVX
[10] = test system: HCC 2998
[11] = test system: HCT-116
[12] = test system: HCT-15
[13] = test system: HOP-62
[14] = test system: HOP-92
[15] = test system: HT-29
[16] = test system: Hs-578T
[17] = test system: IGROV-1
[18] = test system: K562
[19] = test system: KM12
[20] = test system: M14
[21] = test system: MCF7
[22] = test system: MDA-MB-231
[23] = test system: MDA-MB-435
[24] = test system: MDA-N
[25] = test system: MOLT-4
[26] = test system: Malme-3M
[27] = test system: NCI-H23
[28] = test system: NCI-H460
[29] = test system: NCI-H522
[30] = test system: NCI/ADR-RES
[31] = test system: OVCAR-3
[32] = test system: OVCAR-4
[33] = test system: OVCAR-5
[34] = test system: OVCAR-8
[35] = test system: PC-3
[36] = test system: RPMI-8226
[37] = test system: RXF 393
[38] = test system: SF-268
[39] = test system: SF-295
[40] = test system: SK-MEL-28
[41] = test system: SK-MEL-2
[42] = test system: SK-MEL-5
[43] = test system: SK-OV-3
[44] = test system: SNB-19
[45] = test system: SNB-75
[46] = test system: TK-10
[47] = test system: U-251
[48] = test system: UACC-257
[49] = test system: UACC-62
[50] = test system: UO-31
[51] = test system: CCRF-CEM
[52] = test system: HL-60
[53] = test system: SF-539
[54] = test system: SN12C

For `CCOP(=O)(Nc1ccc(-c2ccc(N)cc2)cc1)OCC`, which GI50 [1] is on record?
The GI50 was > 100 µM (inactive).

What about the GI50 [2] of the same molecule?
The GI50 was > 100 µM (inactive).

And the GI50 [3]?
The GI50 was > 100 µM (inactive).

What about the GI50 [4] of the same molecule?
Its GI50 is > 100 µM (inactive).

What about the GI50 [5] of the same molecule?
Its GI50 is > 100 µM (inactive).

And the GI50 [6]?
The GI50 was > 100 µM (inactive).

What about the GI50 [7] of the same molecule?
The GI50 was > 100 µM (inactive).

What about the GI50 [8] of the same molecule?
Its GI50 is > 100 µM (inactive).

And the GI50 [9]?
The GI50 was 38.9 µM (inactive).

And the GI50 [10]?
Its GI50 is > 100 µM (inactive).

And the GI50 [11]?
The GI50 was 99.8 µM (inactive).

What about the GI50 [12] of the same molecule?
The GI50 was greater than 100 µM.

What about the GI50 [13] of the same molecule?
Its GI50 is 89.5 µM (inactive).

And the GI50 [14]?
Its GI50 is > 100 µM (inactive).

And the GI50 [15]?
The GI50 was > 100 µM (inactive).

What about the GI50 [16] of the same molecule?
The GI50 was 43.6 µM (inactive).

And the GI50 [17]?
Its GI50 is > 100 µM (inactive).

What about the GI50 [18] of the same molecule?
Its GI50 is > 100 µM (inactive).

And the GI50 [19]?
Its GI50 is > 100 µM (inactive).

What about the GI50 [20] of the same molecule?
Its GI50 is > 100 µM (inactive).

What about the GI50 [21] of the same molecule?
Its GI50 is > 100 µM (inactive).

What about the GI50 [22] of the same molecule?
The GI50 was > 100 µM (inactive).

What about the GI50 [23] of the same molecule?
Its GI50 is > 100 µM (inactive).

What about the GI50 [24] of the same molecule?
The GI50 was > 100 µM (inactive).

And the GI50 [25]?
Its GI50 is > 100 µM (inactive).

What about the GI50 [26] of the same molecule?
Its GI50 is > 100 µM (inactive).

And the GI50 [27]?
Its GI50 is > 100 µM (inactive).

What about the GI50 [28] of the same molecule?
The GI50 was > 100 µM (inactive).

And the GI50 [29]?
Its GI50 is > 100 µM (inactive).

And the GI50 [30]?
Its GI50 is > 100 µM (inactive).

What about the GI50 [31] of the same molecule?
The GI50 was > 100 µM (inactive).

What about the GI50 [32] of the same molecule?
Its GI50 is > 100 µM (inactive).

What about the GI50 [33] of the same molecule?
The GI50 was 51.6 µM (inactive).

And the GI50 [34]?
The GI50 was > 100 µM (inactive).

And the GI50 [35]?
The GI50 was > 100 µM (inactive).

And the GI50 [36]?
Its GI50 is > 100 µM (inactive).

What about the GI50 [37] of the same molecule?
The GI50 was 35.2 µM (inactive).

What about the GI50 [38] of the same molecule?
The GI50 was > 100 µM (inactive).

And the GI50 [39]?
The GI50 was 84.5 µM (inactive).

And the GI50 [40]?
The GI50 was > 100 µM (inactive).

What about the GI50 [41] of the same molecule?
Its GI50 is > 100 µM (inactive).

And the GI50 [42]?
The GI50 was > 100 µM (inactive).

What about the GI50 [43] of the same molecule?
Its GI50 is > 100 µM (inactive).

What about the GI50 [44] of the same molecule?
Its GI50 is 94.8 µM (inactive).

What about the GI50 [45] of the same molecule?
The GI50 was > 100 µM (inactive).

What about the GI50 [46] of the same molecule?
The GI50 was > 100 µM (inactive).

And the GI50 [47]?
Its GI50 is > 100 µM (inactive).

And the GI50 [48]?
The GI50 was > 100 µM (inactive).

And the GI50 [49]?
The GI50 was > 100 µM (inactive).

What about the GI50 [50] of the same molecule?
Its GI50 is > 100 µM (inactive).

What does the source list for `CN(C)CC1CCCCCCCCCCC1=O` (stereo unspecified)?
GI50 [10]: > 10 µM (inactive); GI50 [22]: > 10 µM (inactive); GI50 [34]: > 10 µM (inactive); GI50 [37]: > 10 µM (inactive); GI50 [39]: > 10 µM (inactive); GI50 [48]: > 10 µM (inactive)

Which results are given for `COC1=CC(c2ccc(Br)[nH]2)=N/C1=C/NCC(C)C`?
GI50 [1]: 1.55 µM (inactive); GI50 [2]: 2.23 µM (inactive); GI50 [3]: 1.46 µM (inactive); GI50 [4]: 1.21 µM (inactive); GI50 [6]: 2.36 µM (inactive); GI50 [51]: 0.581 µM (active); GI50 [7]: 1.24 µM (inactive); GI50 [8]: 0.475 µM (active); GI50 [9]: 0.368 µM (active); GI50 [10]: 1.34 µM (inactive); GI50 [11]: 1.44 µM (inactive); GI50 [12]: 1.3 µM; GI50 [52]: 1.39 µM (inactive); GI50 [13]: 1.47 µM (inactive); GI50 [14]: 1.32 µM (inactive); GI50 [15]: 1.24 µM (inactive); GI50 [16]: 2.29 µM (inactive); GI50 [17]: 2.37 µM (inactive); GI50 [18]: 2.65 µM (inactive); GI50 [19]: 1.26 µM (inactive); GI50 [20]: 1.98 µM (inactive); GI50 [21]: 1.09 µM (active); GI50 [22]: 2.02 µM (inactive); GI50 [23]: 1.93 µM (inactive); GI50 [25]: 1.33 µM (inactive); GI50 [26]: 1.75 µM (inactive); GI50 [27]: 1.58 µM (inactive); GI50 [28]: 1.62 µM (inactive); GI50 [29]: 1.49 µM (inactive); GI50 [31]: 1.62 µM (inactive); GI50 [32]: 1.86 µM (inactive); GI50 [33]: 2.11 µM (inactive); GI50 [34]: 2.01 µM (inactive); GI50 [35]: 1.47 µM (inactive); GI50 [36]: 0.412 µM (active); GI50 [38]: 2.26 µM (inactive); GI50 [39]: 1.6 µM (inactive); GI50 [53]: 2.06 µM (inactive); GI50 [40]: 2.75 µM (inactive); GI50 [41]: 1.5 µM (inactive); GI50 [42]: 1.53 µM (inactive); GI50 [43]: 2.53 µM (inactive); GI50 [54]: 2.21 µM (inactive); GI50 [44]: 3.6 µM (inactive); GI50 [45]: 5.18 µM (inactive); GI50 [46]: 2.55 µM (inactive); GI50 [47]: 1.51 µM (inactive); GI50 [48]: 2.07 µM (inactive); GI50 [49]: 1.98 µM (inactive); GI50 [50]: 2.06 µM (inactive)
